One compound from paper PMC10791687, “The Piezo channel is a mechano-sensitive complex component in the mammalian inner ear hair cell” (Nature Communications, 2024) can be followed below.

The experiment addresses T1, mPz1 (mouse Piezo1) (Mus musculus, UniProt E2JF22).
T1 construct: full-length, mPz1-IRES-GFP plasmid (clone from A. Patapoutian) in mouse Neuro2A cells; also purified/enriched mPz1 in planar lipid bilayer; homotrimer
Briefly: single-channel recording in planar lipid bilayer. The class given is biochemical. As to conditions: purified mPz1, 500 mM KCl, 10 mM MOPS, pH 7.4.

T1 sequence (E2JF22 whole entry): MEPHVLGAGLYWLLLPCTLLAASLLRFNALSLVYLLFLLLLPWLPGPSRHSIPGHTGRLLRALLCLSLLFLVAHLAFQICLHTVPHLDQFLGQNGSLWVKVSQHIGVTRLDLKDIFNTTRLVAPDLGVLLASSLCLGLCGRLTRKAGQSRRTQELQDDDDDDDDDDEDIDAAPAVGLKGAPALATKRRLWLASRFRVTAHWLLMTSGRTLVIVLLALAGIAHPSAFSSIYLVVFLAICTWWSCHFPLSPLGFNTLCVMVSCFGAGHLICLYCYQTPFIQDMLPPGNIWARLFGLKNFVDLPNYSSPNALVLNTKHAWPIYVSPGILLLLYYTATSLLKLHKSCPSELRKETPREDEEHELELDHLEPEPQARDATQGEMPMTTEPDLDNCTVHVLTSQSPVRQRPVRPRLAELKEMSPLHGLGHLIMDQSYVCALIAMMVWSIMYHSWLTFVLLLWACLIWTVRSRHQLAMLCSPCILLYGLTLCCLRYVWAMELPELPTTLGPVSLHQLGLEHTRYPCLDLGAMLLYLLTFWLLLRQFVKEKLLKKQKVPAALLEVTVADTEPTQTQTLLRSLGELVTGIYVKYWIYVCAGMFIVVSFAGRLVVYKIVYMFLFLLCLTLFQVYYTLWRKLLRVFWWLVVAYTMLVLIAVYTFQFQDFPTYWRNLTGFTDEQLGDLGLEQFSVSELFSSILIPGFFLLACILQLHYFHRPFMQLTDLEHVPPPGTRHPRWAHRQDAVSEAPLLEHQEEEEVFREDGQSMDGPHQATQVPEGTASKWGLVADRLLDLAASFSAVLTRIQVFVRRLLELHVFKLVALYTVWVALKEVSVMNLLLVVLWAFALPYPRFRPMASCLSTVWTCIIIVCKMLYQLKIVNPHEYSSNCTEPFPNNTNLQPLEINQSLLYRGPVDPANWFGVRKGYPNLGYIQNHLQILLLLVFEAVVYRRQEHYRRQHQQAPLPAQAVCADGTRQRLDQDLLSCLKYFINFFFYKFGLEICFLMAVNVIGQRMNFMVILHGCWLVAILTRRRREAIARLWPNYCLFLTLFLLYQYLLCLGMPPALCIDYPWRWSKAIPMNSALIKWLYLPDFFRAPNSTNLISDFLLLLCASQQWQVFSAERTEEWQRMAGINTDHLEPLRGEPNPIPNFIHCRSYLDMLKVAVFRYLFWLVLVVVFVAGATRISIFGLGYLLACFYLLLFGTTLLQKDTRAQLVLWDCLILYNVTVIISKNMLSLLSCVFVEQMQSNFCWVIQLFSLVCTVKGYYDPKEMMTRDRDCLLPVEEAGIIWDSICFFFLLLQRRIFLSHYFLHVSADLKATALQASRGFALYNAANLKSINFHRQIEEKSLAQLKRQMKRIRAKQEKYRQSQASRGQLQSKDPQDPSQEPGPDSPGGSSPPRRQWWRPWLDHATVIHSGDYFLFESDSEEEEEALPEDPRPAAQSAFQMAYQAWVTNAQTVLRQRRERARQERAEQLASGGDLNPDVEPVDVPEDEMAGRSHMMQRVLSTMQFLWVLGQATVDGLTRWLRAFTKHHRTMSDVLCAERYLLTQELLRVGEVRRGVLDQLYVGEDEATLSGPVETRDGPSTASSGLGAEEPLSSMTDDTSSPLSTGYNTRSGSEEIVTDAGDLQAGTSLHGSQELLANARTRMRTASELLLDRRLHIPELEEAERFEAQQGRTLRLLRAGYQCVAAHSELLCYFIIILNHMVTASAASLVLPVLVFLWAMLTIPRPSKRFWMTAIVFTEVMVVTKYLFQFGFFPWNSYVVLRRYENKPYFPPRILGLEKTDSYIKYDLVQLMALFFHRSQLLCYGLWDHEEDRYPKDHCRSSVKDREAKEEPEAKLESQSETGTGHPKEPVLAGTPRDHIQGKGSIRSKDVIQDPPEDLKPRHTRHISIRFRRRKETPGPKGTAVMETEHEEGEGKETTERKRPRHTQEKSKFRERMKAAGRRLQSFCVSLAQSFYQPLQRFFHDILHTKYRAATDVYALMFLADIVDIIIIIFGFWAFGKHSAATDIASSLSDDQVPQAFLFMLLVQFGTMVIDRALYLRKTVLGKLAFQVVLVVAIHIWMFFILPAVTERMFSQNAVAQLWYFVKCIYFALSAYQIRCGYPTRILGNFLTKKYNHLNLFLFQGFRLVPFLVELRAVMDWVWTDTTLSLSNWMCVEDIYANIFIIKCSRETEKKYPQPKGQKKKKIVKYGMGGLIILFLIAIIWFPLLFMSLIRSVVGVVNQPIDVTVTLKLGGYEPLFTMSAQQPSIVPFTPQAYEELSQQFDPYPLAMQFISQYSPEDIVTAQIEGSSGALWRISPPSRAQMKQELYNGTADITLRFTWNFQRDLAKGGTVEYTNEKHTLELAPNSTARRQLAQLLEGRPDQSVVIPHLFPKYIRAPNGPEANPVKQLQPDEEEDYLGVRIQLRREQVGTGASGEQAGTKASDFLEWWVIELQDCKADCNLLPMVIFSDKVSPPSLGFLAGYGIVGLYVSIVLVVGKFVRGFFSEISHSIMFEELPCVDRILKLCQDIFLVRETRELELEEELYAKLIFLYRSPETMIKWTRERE

For `CN[C@@H]1[C@H](O[C@H]2[C@H](O[C@H]3[C@H](O)[C@@H](O)[C@H](N=C(N)N)[C@@H](O)[C@@H]3N=C(N)N)O[C@@H](C)[C@]2(O)CO)O[C@@H](CO)[C@H](O)[C@H]1O` [dihydrostreptomycin], the “single-channel recording in planar lipid bilayer” value is “DHS, GsMTx4, and ruthenium blocked the mPz1-channel activity in lipid bilayers”.
